Experimental data from patent US11739122B2, “Glycopeptide antibiotic compounds, methods for producing the same, and uses thereof” (Academia Sinica, priority 2019, dated 2023).
≈ marks a conversion by molar mass, not a printed value.

Columns and labels:
Assay in all cases: MIC, broth microdilution
A. baumannii ATCC 19606 = format: cell-based, Acinetobacter baumannii
Description: (§1) Determination of Minimal Inhibitory Concentration (MIC) for Vancomycin, Teicoplanin and Tei-Analogs Versus Selected Strains
(§2) MICs were determined by the broth microdilution method. Specifically, 12 Colonies of the test strain were picked up from 18-24 hour agar cultures and freshly inoculated into broth mediums until reaching the turbidity of a 0.5 McFarland standard. The broth culture was adjusted with broth medium to approximately 1×10^8 CFUmL^−1. […] The plates were incubated in 37° C. for 18-24 hours and monitored for the wells of the positive control, where cells grew, and the wells of the negative control, where wells should not grow. The MIC value was determined for the concentration of a test compound, at which there was no visible growth in the well.

MRSA ATCC 43300 = format: cell-based, Staphylococcus aureus; conditions: MRSA ATCC 43300
Description: as §1, §2

MRSA ATCC 700698 hVISA = format: cell-based, Staphylococcus aureus; conditions: MRSA ATCC 700698 hVISA
Description: as §1, §2

MRSA ATCC 700787 VRSA = format: cell-based, Staphylococcus aureus; conditions: MRSA ATCC 700787 VRSA
Description: as §1, §2

MRSA ATCC 700789 VRSA = format: cell-based, Staphylococcus aureus; conditions: MRSA ATCC 700789 VRSA
Description: as §1, §2

MRSA ATCC BAA-38 = format: cell-based, Staphylococcus aureus; conditions: MRSA ATCC BAA-38
Description: as §1, §2

MRSA ATCC BAA-39 = format: cell-based, Staphylococcus aureus; conditions: MRSA ATCC BAA-39
Description: as §1, §2

MRSA ATCC BAA-44 = format: cell-based, Staphylococcus aureus; conditions: MRSA ATCC BAA-44
Description: as §1, §2

S. aureus ATCC 29213 = format: cell-based, Staphylococcus aureus; conditions: SA ATCC 29213
Description: as §1, §2

E. faecalis ATCC 29302 = format: cell-based; conditions: EF ATCC 29302
Description: as §1, §2

VRE ATCC 700221 (vanA) = format: cell-based, enterococci; conditions: VRE ATCC 700221 (vanA)
Description: as §1, §2

VRE ATCC 700425 (vanC) = format: cell-based, enterococci; conditions: VRE ATCC 700425 (vanC)
Description: as §1, §2

VRE ATCC 700802 (vanB) = format: cell-based, enterococci; conditions: VRE ATCC 700802 (vanB)
Description: as §1, §2

[1] = A. baumannii ATCC 19606, Table 3, first figure of cell
[2] = A. baumannii ATCC 19606, Table 3, second figure of cell

CN(C)[C@H]1C(=O)N[C@@H]2Cc3ccc(c(Cl)c3)Oc3cc4cc(c3O)Oc3ccc(cc3Cl)[C@@H](O[C@@H]3O[C@H](CO)[C@@H](O)[C@H](O)[C@H]3NC(=O)CCCCCCCNC(=N)NC(=N)N)[C@@H]3NC(=O)[C@H](NC(=O)[C@@H]4NC(=O)[C@@H](NC2=O)c2cc(O)cc(c2)Oc2cc1ccc2O)c1ccc(O)c(c1)-c1c(O)cc(O)cc1[C@@H](C(=O)O)NC3=O [Compound 25, r1,Me2-r6,C8-diguanidino-Tei]
MIC on AB (A. baumannii ATCC 19606; A. baumannii ATCC 19606): 39.24 µg/mL (≈ 24.3 µM) | MIC (A. baumannii ATCC 19606; [1]): 25 µM | MIC (A. baumannii ATCC 19606; [2]): 40.29 µg/mL

NCCC[C@H](N)CC(=O)N[C@@H]1[C@H](O)[C@@H](OC(N)=O)[C@@H](CO)O[C@H]1NC1=N[C@@H]2C(=O)NC[C@@H](O)[C@H]2N1 [streptothricin F, reference compound]
MIC (A. baumannii ATCC 19606; [1]): 12.5 µM | MIC (A. baumannii ATCC 19606; [2]): 6.28 µg/mL

CCCCCCCC(=O)NC1C(OC2c3ccc(c(Cl)c3)Oc3cc4cc(c3O)Oc3ccc(cc3Cl)CC3NC(=O)C(N)c5ccc(O)c(c5)Oc5cc(O)cc(c5)C(NC3=O)C(=O)NC4C(=O)NC3C(=O)NC2C(=O)NC(C(=O)O)c2cc(O)cc(OC4OC(CO)C(O)C(O)C4O)c2-c2cc3ccc2O)OC(CO)C(O)C1O (centres unmarked) [Compound 26]
MIC (MRSA ATCC 43300): 0.125 µg/mL (≈ 0.0758 µM) | MIC (MRSA ATCC 700698 hVISA): 0.031 µg/mL (≈ 0.0188 µM) | MIC (MRSA ATCC 700787 VRSA): 0.5 µg/mL (≈ 0.303 µM) | MIC (MRSA ATCC 700789 VRSA): 0.5 µg/mL (≈ 0.303 µM) | MIC (MRSA ATCC BAA-38): 0.125 µg/mL (≈ 0.0758 µM) | MIC (MRSA ATCC BAA-39): 0.016 µg/mL (≈ 0.00971 µM) | MIC (MRSA ATCC BAA-44): 0.016 µg/mL (≈ 0.00971 µM) | MIC (S. aureus ATCC 29213): 0.016 µg/mL (≈ 0.00971 µM) | MIC (E. faecalis ATCC 29302): 0.5 µg/mL (≈ 0.303 µM) | MIC (VRE ATCC 700221 (vanA)): >16 µg/mL | MIC (VRE ATCC 700425 (vanC)): 1 µg/mL (≈ 0.607 µM) | MIC (VRE ATCC 700802 (vanB)): 1 µg/mL (≈ 0.607 µM)

CCCCCCCC(=O)N[C@H]1[C@H](O[C@@H]2c3ccc(c(Cl)c3)Oc3cc4cc(c3O)Oc3ccc(cc3Cl)C[C@H]3NC(=O)[C@H](N(C)C)c5ccc(O)c(c5)Oc5cc(O)cc(c5)[C@H](NC3=O)C(=O)N[C@H]4C(=O)N[C@H]3C(=O)N[C@@H]2C(=O)N[C@H](C(=O)O)c2cc(O)cc(O)c2-c2cc3ccc2O)O[C@H](CO)[C@@H](O)[C@@H]1O [Compound 20]
MIC (MRSA ATCC 43300): 0.063 µg/mL (≈ 0.0416 µM) | MIC (MRSA ATCC 700698 hVISA): 0.016 µg/mL (≈ 0.0106 µM) | MIC (MRSA ATCC 700787 VRSA): 0.016 µg/mL (≈ 0.0106 µM) | MIC (MRSA ATCC 700789 VRSA): 0.5 µg/mL (≈ 0.33 µM) | MIC (MRSA ATCC BAA-38): 0.016 µg/mL (≈ 0.0106 µM) | MIC (MRSA ATCC BAA-39): 0.016 µg/mL (≈ 0.0106 µM) | MIC (MRSA ATCC BAA-44): 0.016 µg/mL (≈ 0.0106 µM) | MIC (S. aureus ATCC 29213): 0.016 µg/mL (≈ 0.0106 µM) | MIC (E. faecalis ATCC 29302): 0.25 µg/mL (≈ 0.165 µM) | MIC (VRE ATCC 700221 (vanA)): >16 µg/mL | MIC (VRE ATCC 700425 (vanC)): 1 µg/mL (≈ 0.66 µM) | MIC (VRE ATCC 700802 (vanB)): 0.5 µg/mL (≈ 0.33 µM)

N[C@H]1C(=O)N[C@@H]2Cc3ccc(c(Cl)c3)Oc3cc4cc(c3O)Oc3ccc(cc3Cl)[C@@H](O[C@@H]3O[C@H](CO)[C@@H](O)[C@H](O)[C@H]3NC(=O)CCc3ccccc3)[C@@H]3NC(=O)[C@H](NC(=O)[C@@H]4NC(=O)[C@@H](NC2=O)c2cc(O)cc(c2)Oc2cc1ccc2O)c1ccc(O)c(c1)-c1c(O)cc(O)cc1[C@@H](C(=O)O)NC3=O [Compound 15]
MIC (MRSA ATCC 43300): 0.031 µg/mL (≈ 0.0208 µM) | MIC (MRSA ATCC 700698 hVISA): 0.016 µg/mL (≈ 0.0107 µM) | MIC (MRSA ATCC 700787 VRSA): 0.031 µg/mL (≈ 0.0208 µM) | MIC (MRSA ATCC 700789 VRSA): 0.5 µg/mL (≈ 0.335 µM) | MIC (MRSA ATCC BAA-38): 0.016 µg/mL (≈ 0.0107 µM) | MIC (MRSA ATCC BAA-39): 0.016 µg/mL (≈ 0.0107 µM) | MIC (MRSA ATCC BAA-44): 0.016 µg/mL (≈ 0.0107 µM) | MIC (S. aureus ATCC 29213): 0.031 µg/mL (≈ 0.0208 µM) | MIC (E. faecalis ATCC 29302): 0.25 µg/mL (≈ 0.168 µM) | MIC (VRE ATCC 700221 (vanA)): >16 µg/mL | MIC (VRE ATCC 700425 (vanC)): 1 µg/mL (≈ 0.67 µM) | MIC (VRE ATCC 700802 (vanB)): 0.5 µg/mL (≈ 0.335 µM)

N[C@H]1C(=O)N[C@@H]2Cc3ccc(c(Cl)c3)Oc3cc4cc(c3O)Oc3ccc(cc3Cl)[C@@H](O[C@@H]3O[C@H](CO)[C@@H](O)[C@H](O)[C@H]3NC(=O)CCCCCc3ccccc3)[C@@H]3NC(=O)[C@H](NC(=O)[C@@H]4NC(=O)[C@@H](NC2=O)c2cc(O)cc(c2)Oc2cc1ccc2O)c1ccc(O)c(c1)-c1c(O)cc(O)cc1[C@@H](C(=O)O)NC3=O [Compound 16]
MIC (MRSA ATCC 43300): 0.063 µg/mL (≈ 0.0411 µM) | MIC (MRSA ATCC 700698 hVISA): 0.016 µg/mL (≈ 0.0104 µM) | MIC (MRSA ATCC 700787 VRSA): 0.125 µg/mL (≈ 0.0815 µM) | MIC (MRSA ATCC 700789 VRSA): 0.5 µg/mL (≈ 0.326 µM) | MIC (MRSA ATCC BAA-38): 0.031 µg/mL (≈ 0.0202 µM) | MIC (MRSA ATCC BAA-39): 0.063 µg/mL (≈ 0.0411 µM) | MIC (MRSA ATCC BAA-44): 0.016 µg/mL (≈ 0.0104 µM) | MIC (S. aureus ATCC 29213): 0.125 µg/mL (≈ 0.0815 µM) | MIC (E. faecalis ATCC 29302): 0.25 µg/mL (≈ 0.163 µM) | MIC (VRE ATCC 700221 (vanA)): >16 µg/mL | MIC (VRE ATCC 700425 (vanC)): 1 µg/mL (≈ 0.652 µM) | MIC (VRE ATCC 700802 (vanB)): 0.25 µg/mL (≈ 0.163 µM)
